Tests used:
[1] = system: Human rhinovirus sp.; experiment: Ratio of EC50 for HRV Hanks infected in human H1-HeLa cells after 9 passage for 59 days to EC50 for wild type HRV Hanks infected in human H1-HeLa cells; assay type: functional
[2] = system: rhinovirus B14; experiment: Ratio of EC50 for HRV14 infected in human H1-HeLa cells after 2 passages for 11 days to EC50 for wild type HRV14 infected in human H1-HeLa cells; assay type: functional
[3] = system: Human rhinovirus sp.; experiment: Antiviral activity against wild type HRV Hanks infected in human H1-HeLa cells assessed as virus-induced cytopathic effect after 4 days by plaque reduction assay; assay type: functional, organism-based; details: 96 h
[4] = system: rhinovirus B14; experiment: Ratio of EC50 for HRV14 with 3C protease T129A mutation infected in human H1-HeLa cells to EC50 for wild type HRV14 infected in human H1-HeLa cells; assay type: functional
[5] = system: rhinovirus B14; experiment: Ratio of EC50 for HRV14 infected in human H1-HeLa cells after 4 passages for 17 days to EC50 for wild type HRV14 infected in human H1-HeLa cells; assay type: functional
[6] = system: rhinovirus B14; experiment: Ratio of EC50 for HRV14 infected in human H1-HeLa cells after 11 passages for 65 days to EC50 for wild type HRV14 infected in human H1-HeLa cells; assay type: functional
[7] = system: rhinovirus A2; experiment: Ratio of EC50 for HRV2 infected in human H1-HeLa cells after 8 passages for 52 days to EC50 for wild type HRV2 infected in human H1-HeLa cells; assay type: functional
[8] = system: rhinovirus A2; experiment: Antiviral activity against wild type HRV2 infected in human H1-HeLa cells assessed as virus-induced cytopathic effect after 3 days by XTT assay; assay type: functional, organism-based; details: Rhinovirus A, 72 h
[9] = system: rhinovirus A39; experiment: Ratio of EC50 for HRV39 infected in human H1-HeLa cells after 9 passages for 50 days to EC50 for wild type HRV39 infected in human H1-HeLa cells; assay type: functional
[10] = system: rhinovirus B14; experiment: Ratio of EC50 for HRV14 with 3C protease with T129A, T131A, T143P, Y139Y/H mutation infected in human H1-HeLa cells after 10 passages for 55 days to EC50 for wild type HRV14 infected in human H1-HeLa cells; assay type: functional
[11] = system: rhinovirus A2; experiment: Ratio of EC50 for HRV2 infected in human H1-HeLa cells after 6 passages for 37 days to EC50 for wild type HRV2 infected in human H1-HeLa cells; assay type: functional
[12] = system: rhinovirus A2; experiment: Ratio of EC50 for HRV2 with 3C protease E3E/G, A103A/V, N165T mutation infected in human H1-HeLa cells after 9 passages for 62 days to EC50 for wild type HRV2 infected in human H1-HeLa cells; assay type: functional
[13] = system: rhinovirus A2; experiment: Antiviral activity against HRV2 with 3C protease N165T mutation infected in human H1-HeLa cells assessed as virus-induced cytopathic effect after 5 passages for 30 days by XTT assay; assay type: functional, organism-based; details: Rhinovirus A

CCOC(=O)/C=C/[C@H](C[C@@H]1CCNC1=O)NC(=O)[C@@H](CC(=O)[C@@H](NC(=O)c1cc(C)on1)C(C)C)Cc1ccc(F)cc1 [RUPINTRIVIR]
Ratio EC50 [1]: 3 | Ratio EC50 [2]: 3.5 | EC50 [3]: 0.019 µM | Ratio EC50 [4]: 1 | Ratio EC50 [5]: 10 | Ratio EC50 [6]: 90 | Ratio EC50 [7]: 15 | EC50 [8]: 0.03 µM | Ratio EC50 [9]: 6 | Ratio EC50 [10]: 15 | Ratio EC50 [11]: 5 | Ratio EC50 [12]: 5 | EC50 [13]: 0.057 µM
